These results are taken from patent US7115593B2 (priority 2000, dated 2006).

For the assay, the system named is Phytophthora infestans. Description: whole plant or invertebrate. Format: in vivo. As to conditions: tomato, protective, evaluation 3 days after inoculation; for pest or weed control at 10 g/ha / pest or weed control at 20 g/ha / pest or weed control at 0.1 g/ha / pest or weed control at 1 g/ha: Phytophthora infestans, in Solanum lycopersicum, 72 h; for pest or weed control at 10 g/ha: read-out: Efficacy in %, single active compound, application rate 10 g/ha; for pest or weed control at 20 g/ha: read-out: Efficacy in %, single active compound, application rate 20 g/ha; for pest or weed control at 0.1 g/ha: read-out: Efficacy in %, single active compound, application rate 0.1 g/ha; for pest or weed control at 1 g/ha: read-out: Efficacy in %, single active compound, application rate 1 g/ha; for Efficacy in %: single active compound.

`CC(C)(C)C(O)C(Oc1ccc(-c2ccccc2)cc1)n1cncn1` (stereo not shown) [bitertanol (IIc), 1-(4-phenyl-phenoxy)-3,3-dimethyl-1-(1,2,4-triazol-1-yl)-butan-2-ol]: the pest or weed control at 10 g/ha came out at 4%.

Consider `CCC1(C(=O)NC(C)c2ccc(Cl)cc2)C(C)C1(Cl)Cl` (stereo not shown) [carpropamid (V), N-[1-(4-chloro-phenyl)-ethyl]-2,2-dichloro-1-ethyl-3-methyl-cyclopropane-carboxamide], for which the pest or weed control at 10 g/ha is 0%.

Take `N#Cc1c(Cl)c(Cl)c(Cl)c(C#N)c1Cl` [chlorothalonil (XXIX), chlorothalonil]: the pest or weed control at 20 g/ha is 12%.

Regarding `CC(C)OC(=O)NC(C(=O)NC(C)c1nc2ccc(F)cc2s1)C(C)C` (stereo not shown) [compound of the formula (I), isopropyl 1-({[1-(6-fluoro-1,3-benzothiazol-2-yl)ethyl]-amino}carbonyl)-2-methylpropylcarbamate], the pest or weed control at 0.1 g/ha was 47% and the pest or weed control at 1 g/ha turned out to be 47%.

`CO/C=C(/C(=O)OC)c1ccccc1Oc1cc(Oc2ccccc2C#N)ncn1` [compound of the formula (XII) (11), azoxystrobin]: the pest or weed control at 1 g/ha stood at 55%.

For the molecule `CO/N=C(/C(=O)OC)c1ccccc1CO/N=C(\C)c1cccc(C(F)(F)F)c1` [compound of the formula (XIII) (12), trifloxystrobin], the pest or weed control at 1 g/ha turned out to be 0%.

Turning to `CO/N=C(/C1=NOCCO1)c1ccccc1Oc1ncnc(Oc2ccccc2Cl)c1F` [compound of the formula (XIV) (13)], the pest or weed control at 1 g/ha was determined as 8%.

Consider `OC(Cc1ccccc1Cl)(Cn1nc[nH]c1=S)C1(Cl)CC1` (stereo not shown) [compound of the formula (XXI) (20)], for which the pest or weed control at 10 g/ha amounted to 2%.

As to `Cc1noc(C)c1S(=O)(=O)n1c(Cl)nc2cc3c(cc21)OC(F)(F)O3` [compound of the formula (XXVII), 1-(3,5-dimethyl-isoxazol-4-sulphonyl)-2-chloro-6,6-difluoro-[1,3]-dioxolo-[4,5f]-benzimidazole], the pest or weed control at 0.1 g/ha was determined as 30%.

With `[Cl-].[Cu+2].[Cu+2].[OH-].[OH-].[OH-]` [compound of the formula (XXXXVIa) (40), copper oxychloride], the Efficacy in % (application rate 50 g/ha) is listed as 0%.

The molecule `CN(C)S(=O)(=O)N(SC(F)(Cl)Cl)c1ccccc1` [dichlofluanid (IVa), dichlofluanid] yielded an Efficacy in % (application rate 20 g/ha) of 5%.

Consider `CC1(C(=O)Nc2ccc(O)c(Cl)c2Cl)CCCCC1` [fenhexamid (VIII), fenhexamid], for which the pest or weed control at 10 g/ha was found to be 13%.

As to `O=[N+]([O-])c1cc(C(F)(F)F)c(Cl)c([N+](=O)[O-])c1Nc1ncc(C(F)(F)F)cc1Cl` [fluazinam (XXXI), fluazinam], the pest or weed control at 10 g/ha was 56%.

Take `O=C1c2ccccc2C(=O)N1SC(Cl)(Cl)Cl` [folpet (XIX), folpet]: the pest or weed control at 20 g/ha stood at 0%.

On to `O=[N+]([O-])/N=C1\NCCN1Cc1ccc(Cl)nc1` [imidacloprid (XXII), 1-[(6-chloro-3-pyridinyl)-methyl]-N-nitro-2-imidazolidinimine], for which the pest or weed control at 10 g/ha turned out to be 0%.

For the molecule `CCCN(CC)CC1COC2(CCC(C(C)(C)C)CC2)O1` (stereo not shown) [spiroxamine (XI), 8-t-butyl-2-(N-ethyl-N-n-propyl-amino)-methyl-1,4-dioxaspiro[5,4]-decane], the Efficacy in % (application rate 10 g/ha) was determined as 0%.

Turning to `CC(C)(C)C(O)(CCc1ccc(Cl)cc1)Cn1cncn1` (stereo not shown) [tebuconazole (III), tebuconazole], the pest or weed control at 10 g/ha was found to be 5%.

Take `Cc1ccc(N(SC(F)(Cl)Cl)S(=O)(=O)N(C)C)cc1` [tolylfluanid (IVb), tolylfluanid]: the Efficacy in % (application rate 20 g/ha) was 21%.

For the molecule `CC(C)(C)C(O)C(Oc1ccc(Cl)cc1)n1cncn1` (stereo not shown) [triadimenol (IIb), 1-(4-chloro-phenoxy)-3,3-dimethyl-1-(1,2,4-triazol-1-yl)-butan-2-ol], the pest or weed control at 10 g/ha worked out at 0%.

Molecule mancozeb [mancozeb (VIIc)] returned an Efficacy in % (application rate 20 g/ha) of 28%.

Consider “zinc propylene-1,2-bis-(dithiocarbamidate) [propineb (VI)]”, for which, under “application rate 20 g/ha”, the Efficacy in % is listed as 19%.
